Experimental data from patent US20260152501A1, “CYCLIN MODULATOR” (EUBULUS BIOTHERAPEUTICS (HONG KONG) LIMITED, priority 2022, published 2026).
Read-outs that look alike come from different tables or passages of the source.

Assays:
Assay type in all cases: cell-based
H82 cells = experiment: Cell proliferation experiment, H82 cells; conditions: Homo sapiens, NCI-H82, cultured for 72 hours, Cell Titer-Glo, read-out: Cell antiproliferation data H82
Protocol: (§1) Reagents: RPMI-1640 medium, McCoy's 5A medium, IMDM medium, MEM medium, L-15 medium, fetal bovine serum, Penicillin-Streptomycin double antibody, trypsin, etc., 2-mercaptoethanol, NEAA, pyruvate, etc.
(§2) The test cells were cultured in conventional ways, and the cells should be passed for at least 2 generations before plating.
(§3) 25 μL of 1500 H82 and H69 cells were inoculated in a 384-well plate with black wall and transparent bottom, 25 μL of different concentrations of compounds were added, and the cells were cultured for 72 hours under condition of 37° C. and 5% CO2. The 384-well plate was equilibrated at room temperature, 25 μL of Cell Titer-Glo® reagent was added to each well, and the cells were lysed by shaking on a horizontal shaking shaker for 2 minutes, incubated at room temperature for 10 minutes to stabilize the luminescent signal, and then the chemiluminescent signal was detected using Envision.
(§4) All cells were subjected to IC50 test for corresponding samples. […]
(§5) IC50 was calculated according to the following formula:
(§6) [formula] • wherein, Min, Max and Slope represent the minimum, maximum and slope respectively.

N87 cells = experiment: Cell proliferation experiment, N87 cells; conditions: Cell Titer-Glo, read-out: Cell antiproliferation data N87
Protocol: as §1, §2
(§7) 25 μL of 1000 HT-29, N87, SKOV3, Colo-205 and MDA-MB-231 cells were inoculated in a 384-well plate with black wall and transparent bottom, 25 μL of different concentrations of compounds were added, and the cells were cultured overnight under condition of 37° C. and 5% CO2.
as §3
(§8) All cells were subjected to IC50 test for corresponding samples.
(§9) The fluorescence intensity of each well was detected using the Alarm blue method, and EC50 was calculated.
as §5, §6

H69 cells = experiment: Cell proliferation experiment, H69 cells; conditions: cultured for 72 hours, Cell Titer-Glo, read-out: Cell antiproliferation data H69
Protocol: as §1, §2, §3, §4, §5, §6

MDA-MB-231 cells = experiment: Cell proliferation experiment, MDA-MB-231 cells; conditions: Cell Titer-Glo, read-out: Cell antiproliferation data MDA-MB-231
Protocol: as §1, §2, §7, §3, §8, §9, §5, §6

SKOV3 cells = experiment: Cell proliferation experiment, SKOV3 cells; conditions: Cell Titer-Glo, read-out: Cell antiproliferation data SKOV3
Protocol: as §1, §2, §7, §3, §8, §9, §5, §6

HT-29 cells = experiment: Cell proliferation experiment, HT-29 cells; conditions: Cell Titer-Glo, read-out: Cell antiproliferation data HT-29
Protocol: as §1, §2, §7, §3, §8, §9, §5, §6

Colo-205 cells = experiment: Cell proliferation experiment, Colo-205 cells; conditions: Cell Titer-Glo, read-out: Cell antiproliferation data Colo-205
Protocol: as §1, §2, §7, §3, §8, §9, §5, §6

Cyclin K = experiment: Immunohistochemistry (IHC) staining of Cyclin K in HepG2 cells; conditions: incubated with compound 2 hours, CCNK antibody
Protocol: Appropriate amount of compounds were added to the cultured cells. The cells were incubated in a tissue culture incubator at 37° C. for 2 hours.
After washing the cultured cells twice with PBS, 100 μL 10% neutral buffered formalin were added and the cells were fixed for 20 minutes.
After washing 3 times with PBS, immunohistochemical staining was performed using CCNK antibody and general two-step detection kit (mouse/rabbit enhanced polymer detection system, PV-9000, Zsbio Inc, Beijing).
Specifically, 100 μL of endogenous peroxidase blocker in the kit was added, cells were incubated at room temperature for 10 minutes; rinsed with PBS buffer for 3 minutes×3 times.
100 μL CCNK antibody 1:5000 dilution was added, and the cells were incubated at 37° C. for 60 minutes; rinsed with PBS buffer for 3 minutes×3 times.
100 μL reaction enhancer was added, and the cells were incubated at 37° C. for 20 minutes; rinsed with PBS buffer for 3 minutes×3 times.
100 μL enhanced enzyme-labeled goat anti-mouse/rabbit IgG polymer was added, and the cells were incubated at 37° C. for 20 minutes; rinsed with PBS buffer for 3 minutes×3 times.
The cells were placed in 75% ethanol, soaked for 3 minutes×2 times; placed in 95% ethanol, soaked for 3 minutes×2 times; after removing excess liquid, placed in anhydrous ethanol, soaked for 3 minutes×3 times; after removing excess liquid, air dried, observed under a microscope and taken pictures after sealing.

HepG2 cells = experiment: Antiproliferative effect on HepG2 cells; conditions: Homo sapiens
Protocol: as §1, §2, §8, §9, §5, §6

[1] = Homo sapiens, COLO 205, Colo-205 cells
[2] = Homo sapiens, SK-OV-3, SKOV3 cells

IC50 (MDA-MB-231 cells; Homo sapiens) [nM] | IC50 (HT-29 cells; Homo sapiens) [nM] | IC50 (Colo-205 cells; [1]) [nM] | IC50 (SKOV3 cells; [2]) [nM] | IC50 (HepG2 cells) [nM] | SMILES | IC50 (H82 cells) [nM] | IC50 (N87 cells) [nM] | IC50 (H69 cells; Homo sapiens, NCI-H69, 72 h) [nM] | Cyclin K IHC data of HepG2 cells (Cyclin K) | other results
≤ 100 | ≤ 100 | 100 to 300 | 100 to 300 |  | CC(C)n1cnc2c(NCc3ccc(-c4ccccc4)cc3)nc(N3CCC(N)CC3)nc21 [UB-017, N-([1,1′-biphenyl]-4-ylmethyl)-2-(4-amino-piperidin-1-yl)-9-isopropyl-9H-purin-6-amine] | 100 to 300 | ≤ 100 | 100 to 300 |  | 
> 300 | > 300 | > 300 | > 300 |  | CC(C)n1cnc2c(NCc3ccc(-c4ccccc4)cc3)nc(N3CCOCC3)nc21 [UB-009, N-([1,1′-biphenyl]-4-ylmethyl)-9-isopropyl-2-morpholino-9H-purin-6-amine] | > 300 | > 300 | > 300 |  | 
100 to 300 | 100 to 300 | > 300 | > 300 |  | CC(C)n1cnc2c(NCc3ccc(-c4ccccc4)cc3)nc(N3CCN(C)CC3)nc21 [UB-011, N-([1,l′-biphenyl]-4-ylmethyl)-9-isopropyl-2-(4-methylpiperazin-1-yl)-9H-purin-6-amine] | 100 to 300 | 100 to 300 | > 300 |  | 
> 300 | 100 to 300 | > 300 | > 300 |  | CC[C@H](CO)Nc1nc(NCc2ccc(-c3ccccc3)cc2)c2ncn(C(C)C)c2n1 [UB-007, (R)-2-((6-(([1,1′-biphenyl]-4-ylmethyl)amino)-9-isopropyl-9H-purin-2-yl)amino)butan-1-ol] | 100 to 300 | 100 to 300 | > 300 |  | 
≤ 100 | ≤ 100 | ≤ 100 | 100 to 300 |  | CC(C)n1cnc2c(NCc3ccc(-c4ccccc4)cc3)nc(N[C@@H]3CCCNC3)nc21 [UB-014, (R)-N6-([1,1′-biphenyl]-4-ylmethyl)-9-isopropyl-N2-(Piperidin-3-yl)-9H-purin-2,6-diamine] | ≤ 100 | ≤ 100 | 100 to 300 |  | 
 |  |  |  | < 50 | CC(C)n1cnc2c(NCc3ccc(-c4ccccc4)cc3)nc(N[C@H]3CC[C@H](N)C3)nc21 [UB-040, N6-([1,1′-biphenyl]-4-yl-methyl)-N2-((1S,3S)-3-aminocyclopentyl)-9-isopropyl-9H-purin-2,6-diamine] |  |  |  | B (31 nM < B <= 93 nM) | 
 |  |  |  | 50 to 100 | CC(C)n1cnc2c(NCc3ccc(-c4ccccc4)cc3)nc(N[C@H]3CC[C@@H](N)C3)nc21 [UB-039, N6-([1,1′-biphenyl]-4-yl-methyl)-N2-((1S,3R)-3-aminocyclopentyl)-9-isopropyl-9H-purin-2,6-diamine] |  |  |  | C (93 nM < C <= 278 nM) | 
 |  |  |  | < 50 | CC(C)n1cnc2c(NCc3ccc(-c4ccccc4)cc3)nc(N3CCN[C@H](C)C3)nc21 [UB-027, (R)-N-([1,1′-biphenyl]-4-ylmethyl)-9-isopropyl-2-(3-methylpiperazin-1-yl)-9H-purin-6-amine] |  |  |  | A (A <= 31 nM) | 
 |  |  |  | < 50 | CC(C)n1cnc2c(NCc3ccc(-c4ccccc4)cc3)nc(N[C@H]3CCNC3)nc21 [UB-037, (S)-N6-([1,1′-biphenyl]-4-ylmethyl)-9-isopropyl-N2-(pyrrolidin-3-yl)-9H-purin-2,6-diamine] |  |  |  | C (93 nM < C <= 278 nM) | 
 |  |  |  | < 50 | CC(C)n1cnc2c(NCc3ccc(-c4ccccc4)cc3)nc(N[C@H]3C[C@@H](N)C3)nc21 [UB-041, N6-([1,1′-biphenyl]-4-yl-methyl)-N2-((1s,3s)-3-aminocyclobutyl)-9-isopropyl-9H-purin-2,6-diamine] |  |  |  | C (93 nM < C <= 278 nM) | 
 |  |  |  | 50 to 100 | CC(C)n1cnc2c(NCc3ccc(-c4ccccc4)cc3)nc(OC[C@H]3CNCCN3)nc21 [UB-034, (R)-N-([1,1′-biphenyl]-4-ylmethyl)-9-isopropyl-2-(piperazin-2-ylmethoxy)-9H-purin-6-amine] |  |  |  | C (93 nM < C <= 278 nM) | 
 |  |  |  | < 50 | CC(C)n1cnc2c(NCc3ccc(-c4ccccc4)c(O)c3)nc(N3CCNCC3)nc21 [UB-042] |  |  |  | B (31 nM < B <= 93 nM) | 

Continued, molecule first:

SMILES | IC50 (MDA-MB-231 cells; Homo sapiens) [nM] | IC50 (HT-29 cells; Homo sapiens) [nM] | IC50 (Colo-205 cells; [1]) [nM] | IC50 (SKOV3 cells; [2]) [nM] | IC50 (HepG2 cells) [nM] | IC50 (H82 cells) [nM] | IC50 (N87 cells) [nM] | IC50 (H69 cells; Homo sapiens, NCI-H69, 72 h) [nM] | Cyclin K IHC data of HepG2 cells (Cyclin K) | other results
CCn1cnc2c(NCc3ccc(-c4cccc(CO)c4)cc3)nc(N3CCNCC3)nc21 [UB-005] |  |  |  |  |  | ≤ 100 | ≤ 100 |  |  | IC50 (H69 cells): ≤ 100 nM; IC50 (MDA-MB-231 cells): ≤ 100 nM; IC50 (SKOV3 cells; SKOV3 cells): ≤ 100 nM; IC50 (HT-29 cells): ≤ 100 nM; IC50 (Colo-205 cells; Colo-205 cells): ≤ 100 nM
CCn1cnc2c(NCc3ccc(-c4cccc(CO)n4)cc3)nc(N3CCNCC3)nc21 [UB-002] | ≤ 100 | ≤ 100 | ≤ 100 |  |  | 100 to 300 | ≤ 100 | ≤ 100 |  | 
CCn1cnc2c(NCc3ccc(-c4cccc(CO)n4)cc3)nc(N3CCOCC3)nc21 [UB-001] | ≤ 100 | ≤ 100 | 100 to 300 |  |  | 100 to 300 | ≤ 100 | ≤ 100 |  | 
CCn1cnc2c(NCc3ccc(-c4ccccn4)cc3)nc(N[C@H]3CC[C@H](O)CC3)nc21 [UB-006] | ≤ 100 | ≤ 100 | ≤ 100 | ≤ 100 |  |  |  | > 300 |  | 
CCn1cnc2c(NCc3ccc(-c4cccc(CO)n4)cc3)nc(N3CCN(C)CC3)nc21 [UB-003] | ≤ 100 | ≤ 100 | ≤ 100 |  |  |  |  | 100 to 300 |  | 
CC(C)n1cnc2c(NCc3ccc(-c4ccccc4)c(OCCCC#N)c3)nc(N3CCNCC3)nc21 [UB-063, 4-((4-(((9-isopropyl-2-(piperazin-1-yl)-9H-purin-6-yl)amino)methyl)-[1,1′-biphenyl]-2-yl)oxy)butyronitrile] |  |  |  |  | 100 to 300 |  |  |  | D (D > 278 nM) | 
CC(C)n1cnc2c(NCc3ccc(-c4ccccc4OCCCCO)cc3)nc(N3CCNCC3)nc21 [UB-050, 4-((4′-(((9-isopropyl-2-(piperazin-1-yl)-9H-purin-6-yl)amino)methyl)-[1,1′-biphenyl]-2-yl)oxy)butan-1-ol] |  |  |  |  | 100 to 300 |  |  |  | D (D > 278 nM) | 
CCCOc1cc(CNc2nc(N3CCNCC3)nc3c2ncn3C(C)C)ccc1-c1ccccc1 [UB-044, 9-isopropyl-2-(piperazin-1-yl)-N-((2-propoxy-[1,1′-biphenyl]-4-yl)methyl)-9H-purin-6-amine] |  |  |  |  | > 300 |  |  |  | D (D > 278 nM) | 
CC(C)n1cnc2c(NCc3ccc(-c4ccccc4)c(OCCCCO)c3)nc(N3CCNCC3)nc21 [UB-045, 4-((4-(((9-isopropyl-2-(piperazin-1-yl)-9H-purin-6-yl)amino)methyl)-[1,1′-biphenyl]-2-yl)oxy)butan-1-ol] |  |  |  |  | > 300 |  |  |  | D (D > 278 nM) | 
CCn1cnc2c(NCc3ccc(-c4cccc(CO)c4)cc3)nc(N3CCNCC3)nc21 [UB-004] | ≤ 100 | ≤ 100 | 100 to 300 | 100 to 300 |  |  |  |  |  | IC50 (H69 cells): > 300 nM
c1ccc(-c2ccc(CNc3nc(N4CCNCC4)nc4c3ncn4-c3ccccc3)cc2)cc1 [UB-053, N-([1,1′-biphenyl]-4-ylmethyl)-9-phenyl-2-(piperazin-1-yl)-9H-purin-6-amine] |  |  |  |  | > 300 |  |  |  | D (D > 278 nM) | 
